The values below come from BigSolDB 2.1.

The conditions of this data set: in n-hexane.

As a reminder, the solubility (mole fraction) is the moles of solute divided by all moles in the saturated solution. On to `O=C(NC1=NCCC2(CCCCC2)S1)c1ccccc1`, for which the solubility (mole fraction) (293.15 K) was determined as 0.000124; the solubility (mole fraction) (298.15 K) was found to be 0.000153; the solubility (mole fraction) (303.15 K) turned out to be 0.000189; the solubility (mole fraction) (310.15 K) turned out to be 0.00025; the solubility (mole fraction) (315.15 K) stood at 0.000295.
For `COc1ccc(NC2=NCCC3(CCCCC3)S2)cc1`, in that order: 0.000149, 0.000182, 0.000221, 0.000295 and 0.000357.
Turning to `Clc1ccc(NC2=NCCC3(CCCCC3)S2)cc1`, the solubility (mole fraction) is 6.09e-05 (293.15 K); 7.93e-05 (298.15 K); 0.000101 (303.15 K); 0.000136 (310.15 K); 0.00017 (315.15 K).
Consider `Brc1ccc(NC2=NCCC3(CCCCC3)S2)cc1`, for which the solubility (mole fraction) reads like this: (293.15 K) 2.46e-05; (298.15 K) 3.31e-05; (303.15 K) 4.34e-05; (310.15 K) 6.54e-05; (315.15 K) 8.27e-05.
As for `c1ccc(NC2=NCCC3(CCCCC3)S2)cc1`, the solubility (mole fraction) was determined as 0.00115 (293.15 K); 0.0013 (298.15 K); 0.00148 (303.15 K); 0.0019 (310.15 K); 0.00215 (315.15 K).
For `CC(=O)c1ccc(NC2=NCCC3(CCCCC3)S2)cc1`, in that order: 1.56e-05, 1.93e-05, 2.42e-05, 3.23e-05 and 3.95e-05.
As to `Cc1ccc(NC2=NCCC3(CCCCC3)S2)cc1Cl`, the solubility (mole fraction) runs as follows: (293.15 K) 8.6e-06; (298.15 K) 1.15e-05; (303.15 K) 1.48e-05; (310.15 K) 2.15e-05; (315.15 K) 2.68e-05.
`Cc1ccc(NC2=NCCC3(CCCCC3)S2)cc1` returned a solubility (mole fraction) (293.15 K) of 0.00028; a solubility (mole fraction) (298.15 K) of 0.000326; a solubility (mole fraction) (303.15 K) of 0.000379; a solubility (mole fraction) (310.15 K) of 0.000445; a solubility (mole fraction) (315.15 K) of 0.00052.
Turning to `FC(F)(F)c1ccc(NC2=NCCC3(CCCCC3)S2)cc1`, the solubility (mole fraction) by setting is: (293.15 K) 0.000214; (298.15 K) 0.000272; (303.15 K) 0.000345; (310.15 K) 0.000424; (315.15 K) 0.00057.
Regarding `CCc1ccc(NC2=NCCC3(CCCCC3)S2)cc1`, the solubility (mole fraction) was 0.000365 (293.15 K); 0.000431 (298.15 K); 0.000508 (303.15 K); 0.000617 (310.15 K); 0.000885 (315.15 K).
In the case of `CC(C)c1ccc(NC2=NCCC3(CCCCC3)S2)cc1`, the solubility (mole fraction) reads like this: (293.15 K) 0.000514; (298.15 K) 0.00061; (303.15 K) 0.000742; (310.15 K) 0.000919; (315.15 K) 0.0011.
